Assay results from patent US10570117B2, “Phenylimidazole compound” (Otsuka Pharmaceutical Factory, Inc., priority 2015, dated 2020).
≈ marks a conversion by molar mass, not a printed value. Like-named read-outs stand apart in the source and are kept apart here.

Experiments:
[1] = Solubility in gastric juice or intestinal juice model fluid (precipitation method using DMSO); format: physicochemical; conditions: room temperature
Procedure, shortened: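 Compound in DMSO added to JP disintegration test fluid 1 (pH 1.2) or fluid 2 (pH 6.8) and shaken 24 h at room temperature. After filtration, dissolved concentration (μg/mL) determined by UV absorbance against compound calibration curves.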

[2] = system: lipoprotein lipase (LPL) gene; experiment: LPL mRNA elevating action (RT-PCR quantification of LPL mRNA in C2Cl2 cells); format: cell-based, mouse; conditions: Mus musculus, 24 h, compound 10 μM, ratio relative to the amount of LPL mRNA in cells with DMSO only, read-out: Rate of increase in LPL mRNA
Procedure, shortened: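 Mouse striated-muscle C2Cl2 cells in DMEM with 10% FBS exposed to compounds at 10 μM for 24 h. LPL mRNA quantified by RT-PCR and real-time PCR (20 cycles), expressed as ratio to DMSO-only cells set at 1.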

[3] = pH 1.2, simulated gastric fluid, kinetic from dmso stock, 1st fluid for Disintegration Test of Japanese Pharmacopoeia (pH: 1.2), read-out: Solubility (μg/mL) 1st fluid
[4] = pH 6.8, kinetic from dmso stock, 2nd fluid for Disintegration Test of Japanese Pharmacopoeia (pH: 6.8), read-out: Solubility (μg/mL) 2nd fluid

Row | SMILES | solubility at 24 h [1, 3] [µg/mL] | solubility at 24 h [1, 4] [µg/mL] | melting point | fold induction at 10 µM [2]
1 | COc1cc(OCc2cncc(C(F)(F)F)c2)ccc1-c1[nH]c(-c2ccc(F)nc2)nc1Cl [Example 279] | 4.1 (≈ 8.56 µM) | 0.5 (≈ 1.04 µM) | 188 to 190 °C | 3.63
2 | COc1cc(OCc2ncc(C(F)(F)F)cc2F)ccc1-c1[nH]c(-c2ccc(F)nc2)nc1Cl [Example 281] | 9.7 (≈ 19.5 µM) | 9.3 (≈ 18.7 µM) | 150 to 152 °C | 3.36
3 | COc1cc(O[C@H](C)c2ccc(C(F)(F)F)cc2)ccc1-c1[nH]c(-c2ccc(F)nc2)nc1Cl [Example 290] | < 0.3 | 27.6 (≈ 56.1 µM) | 137 to 139 °C | 2.64
4 | COc1cc(OCc2ccc(C(F)(F)F)cn2)ccc1-c1nc(C2CCC(F)(F)CC2)n(CC2CC2)c1Cl [Example 292] | > 111 | < 9.9 | 144 to 146 °C | 2.81
5 | COc1cc(OCc2ccc(C(F)(F)F)cn2)ccc1-c1nc(-c2ccc(Cl)nc2)n(CC2CC2)c1Cl [Example 294] | 104 (≈ 189 µM) | 2.4 (≈ 4.37 µM) | 123 to 126 °C | 2.42
6 | COc1cc(OCc2ccc(C(F)(F)F)cn2)ccc1-c1c(Cl)nc(-c2ccc(Cl)nc2)n1CC1CC1 [Example 295] | 18.3 (≈ 33.3 µM) | 1.1 (≈ 2 µM) | 130 to 132 °C | 4.06
7 | COCCn1c(-c2ccc(F)nc2)nc(Cl)c1-c1ccc(OCc2ccc(C(F)(F)F)cn2)cc1OC [Example 297] | 89.8 (≈ 167 µM) | 7 (≈ 13 µM) | 131 to 136 °C | 2.76
8 | COc1cc(OCc2ccc(C(F)(F)F)cn2)ccc1-c1c(Br)nc(-c2ccc(Cl)nc2)n1C [Example 301] | 15.1 (≈ 27.3 µM) | < 0.4 | 125 to 127 °C | 2.99
9 | COc1cc(OCc2ccc(C(F)(F)F)cn2)ccc1-c1nc(-c2ccc(F)nc2)n(C)c1Br [Example 302] | > 107 | < 0.4 | 179 to 181 °C | 2.44
10 | COc1cc(OCc2ccc(C(F)(F)F)cn2)ccc1-c1c(Br)nc(-c2ccc(F)nc2)n1C [Example 303] | 84.3 (≈ 157 µM) | < 0.4 | 130 to 132 °C | 3.29
11 | COc1cc(OCc2ccc(C(F)(F)F)cn2)ccc1-c1c(Cl)nc(-c2ccc(Cl)nc2)n1C [Example 309] | 14.8 (≈ 29.1 µM) | < 0.4 | 133 to 135 °C | 2.37
12 | COc1cc(O)ccc1-c1[nH]c(-c2ccc(F)nc2)nc1Cl [Example 313] | 62.3 (≈ 195 µM) | 5 (≈ 15.6 µM) | 209 to 214 °C (dec.) | 1.33
13 | COc1cc(OCc2ccc(C(F)(F)F)[n+]([O-])c2)ccc1-c1cnc(-c2ccc(F)nc2)[nH]1 [Example 314] | 50.2 (≈ 109 µM) | 0.9 (≈ 1.95 µM) | 234 to 239 °C | 1.66
14 | COc1cc(OCc2ccc(C(F)(F)F)[n+]([O-])c2)ccc1-c1[nH]c(-c2ccc(F)nc2)nc1Cl [Example 315] | 1.8 (≈ 3.64 µM) | 2.7 (≈ 5.46 µM) | > 250 °C | 2.7
15 | COc1cc(OCc2c(F)cc(C(F)(F)F)c[n+]2[O-])ccc1-c1cnc(-c2ccc(F)nc2)[nH]1 [Example 316] | 94.4 (≈ 197 µM) | 4.9 (≈ 10.2 µM) | 162 to 167 °C | 2.53
16 | COc1cc(OCc2c(F)cc(C(F)(F)F)c[n+]2[O-])ccc1-c1[nH]c(-c2ccc(F)nc2)nc1Cl [Example 317] | 69.1 (≈ 135 µM) | 9.3 (≈ 18.1 µM) | 105 to 110 °C | 2.9
17 | COc1cc(OCc2c(F)cc(C(F)(F)F)c[n+]2[O-])ccc1-c1[nH]c(-c2ccc(F)nc2)nc1Br [Example 318] | 100 (≈ 180 µM) | 8.7 (≈ 15.6 µM) | 105 to 120 °C | 3.15
18 | COc1cc(OCc2ncc(C(F)(F)F)cc2F)ccc1-c1[nH]c(-c2ccc(F)nc2)nc1F [Example 319] | 4.7 (≈ 9.78 µM) | 0.5 (≈ 1.04 µM) | 156 to 158 °C | 3.74
19 | COc1cc(OCc2cnc(Cl)s2)ccc1-c1cnc(-c2ccc(F)nc2)[nH]1 [Example 321] | 69.4 (≈ 166 µM) | 1.9 (≈ 4.56 µM) | 109 to 116 °C | 1.82
20 | COc1cc(OCc2cc(C(C)C)no2)ccc1-c1cnc(-c2ccc(F)nc2)[nH]1 [Example 322] | 72 (≈ 176 µM) | 1.3 (≈ 3.18 µM) | 227 to 232 °C | 1.55

Row | SMILES | solubility at 24 h [1, 3] [µg/mL] | solubility at 24 h [1, 4] [µg/mL] | melting point | fold induction at 10 µM [2]
21 | COc1cc(-c2cnc(C3CCC(F)(F)CC3)[nH]2)ccc1OCc1ncc(C(F)(F)F)cc1F [Example 323] | 78.3 (≈ 161 µM) | 17 (≈ 35 µM) | 157 to 159 °C | 1.72
22 | COc1cc(-c2[nH]c(-c3ccc(F)nc3)nc2Cl)ccc1OCc1ncc(C(F)(F)F)cc1F [Example 325] | 4.7 (≈ 9.46 µM) | 1.3 (≈ 2.62 µM) | 165 to 170 °C | 2.44
23 | COc1cc(-c2[nH]c(C3CCC(F)(F)CC3)nc2Cl)ccc1OCc1ncc(C(F)(F)F)cc1F [Example 326] | 63.7 (≈ 123 µM) | 0.7 (≈ 1.35 µM) | 173 to 176 °C | 2.63
24 | COc1cc(-c2[nH]c(C3CCC(F)(F)CC3)nc2Br)ccc1OCc1ncc(C(F)(F)F)cc1F [Example 327] | 110 (≈ 194 µM) | 0.7 (≈ 1.24 µM) | 203 to 204 °C | 3.06
25 | CCOC(C)n1cc(-c2ccc(OCc3ccc(C(F)(F)F)nc3)cc2OC)nc1-c1ccc(F)nc1 (stereo not drawn) [Example 328] | 44.2 (≈ 85.6 µM) | 0.4 (≈ 0.774 µM) | 102 to 104 °C | 2.41
26 | COc1cc(OCc2ccc(C(F)(F)F)nc2)ccc1-c1[nH]c(-c2ccc(F)nc2)nc1I [Example 329] | 5.8 (≈ 10.2 µM) | 13.6 (≈ 23.8 µM) | 195 to 208 °C | 2.96
27 | CCOC(C)n1c(-c2ccc(F)nc2)nc(-c2ccc(OCc3ccc(C(F)(F)F)nc3)cc2OC)c1I (stereo not drawn) [Example 330] | 6.5 (≈ 10.1 µM) | 0.9 (≈ 1.4 µM) | 129 to 131 °C | 1.88
28 | COc1cc(OCc2ncc(C(F)(F)F)cc2F)ccc1-c1[nH]c(-c2ccc(F)nc2)nc1C [Example 331] | 94.6 (≈ 199 µM) | 8 (≈ 16.8 µM) | 100 to 105 °C | 2.17
29 | COc1cc(OCc2ccccc2)ccc1-c1[nH]c(-c2ccc(F)nc2)nc1C [Example 332] | 77.7 (≈ 200 µM) | 3.3 (≈ 8.47 µM) | 169 to 171 °C | 1.91
30 | COc1cc(O)ccc1-c1[nH]c(-c2ccc(F)nc2)nc1C [Example 333] | 59 (≈ 197 µM) | 5.2 (≈ 17.4 µM) | 154 to 159 °C | 1.22
31 | COc1cc(OCc2noc(C3CC3)n2)ccc1-c1cnc(-c2ccc(F)nc2)[nH]1 [Example 334] | 76.6 (≈ 188 µM) | 7.8 (≈ 19.1 µM) | 153 to 158 °C | 1.78
32 | COc1cc(OCc2ncc(C(F)(F)F)cc2F)ccc1-c1cnc(C2CCC(F)(F)CC2)[nH]1 [Example 335] | 93.4 (≈ 192 µM) | 6.6 (≈ 13.6 µM) | 105 to 110 °C | 2.37
33 | COc1cc(OCc2ncc(C(F)(F)F)cc2F)ccc1-c1[nH]c(C2CCC(F)(F)CC2)nc1Cl [Example 336] | 89.3 (≈ 172 µM) | 0.4 (≈ 0.769 µM) | 172 to 174 °C | 3.23
34 | COc1cc(OCc2ncc(C(F)(F)F)cc2F)ccc1-c1[nH]c(C2CCC(F)(F)CC2)nc1Br [Example 337] | 110 (≈ 195 µM) | 0.5 (≈ 0.886 µM) | 190 to 191 °C | 3.07
35 | COc1cc(-c2cnc(C3CCC(F)(F)CC3)[nH]2)ccc1O [Example 339] | > 62 | 58.9 (≈ 191 µM) | 131 to 136 °C | 1.32
36 | Oc1ccc(-c2cnc(-c3ccc(F)nc3)[nH]2)cc1 [Example 343] | 50 (≈ 196 µM) | 39.2 (≈ 154 µM) | > 270 °C | 1.42
37 | Fc1ccc(-c2ncc(-c3ccc(OCc4ncc(C(F)(F)F)cc4F)cc3)[nH]2)cn1 [Example 344] | 85.9 (≈ 199 µM) | 4.6 (≈ 10.6 µM) | 174 to 177 °C | 1.83
38 | Fc1ccc(-c2nc(Br)c(-c3ccc(OCc4ncc(C(F)(F)F)cc4F)cc3)[nH]2)cn1 [Example 345] | < 0.4 | < 0.4 | 155 to 158 °C | 2.39
39 | COc1cc(OCc2ncc(C(F)(F)F)cc2F)ccc1-c1[nH]c(C2CCC(F)(F)C2)nc1Cl (stereo not drawn) [Example 346] | 99.1 (≈ 196 µM) | < 0.4 | 147 to 149 °C | 3.18
